Experimental data reported in the supplement of paper PMC4862054.
Several values for one entry are separate records, joined by “and”; a condition that tells them apart may be missing. Equal values may be shown once.

What was measured:
Test in all cases: normalised viability (% of control), CellTiter-Blue; higher = more viable cells (about 100 = DMSO control)
Conditions in all cases: incubation time: 72 h
DU-4475 [1] = system: DU-4475
Method: (§1)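 DSRT, CellTiter-Blue viability, 72 h incubation. Signal is normalised to DMSO and benzethonium chloride controls. Value is the normalised response at dose 9.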

CAL-148 [2] = system: CAL-148
Method: as §1

MDA-MB-453 [3] = system: MDA-MB-453
Method: as §1

CAL-51 [4] = system: CAL-51
Method: as §1

HDQ-P1 [5] = system: HDQ-P1
Method: as §1

CAL-85-1 [6] = system: CAL-85-1
Method: as §1

DU-4475 [7] = system: DU-4475; remark: listed apart in the source
Method: (§2)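 DSRT, CellTiter-Blue viability, 72 h incubation. Signal is normalised to DMSO and benzethonium chloride controls. Value is the normalised response at dose 8.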

CAL-148 [8] = system: CAL-148; remark: listed apart in the source
Method: as §2

MDA-MB-453 [9] = system: MDA-MB-453; remark: listed apart in the source
Method: as §2

CAL-51 [10] = system: CAL-51; remark: listed apart in the source
Method: as §2

HDQ-P1 [11] = system: HDQ-P1; remark: listed apart in the source
Method: as §2

CAL-85-1 [12] = system: CAL-85-1; remark: listed apart in the source
Method: as §2

Work on `CO[C@H]1C[C@@H]2CC[C@@H](C)[C@@](O)(O2)C(=O)C(=O)N2CCCC[C@H]2C(=O)O[C@H]([C@H](C)C[C@@H]2CC[C@@H](O)[C@H](OC)C2)CC(=O)[C@H](C)/C=C(\C)[C@@H](O)[C@@H](OC)C(=O)[C@H](C)C[C@H](C)/C=C/C=C/C=C/1C` [Sirolimus] (1000 nM) yielded a normalised viability (DU-4475 [1]) of 59.9%, a normalised viability (CAL-148 [2]) of 44% and a normalised viability (MDA-MB-453 [3]) of 25.3%. The normalised viability (CAL-51 [4]) was 26.1%, the normalised viability (HDQ-P1 [5]) was 70.3% and the normalised viability (CAL-85-1 [6]) was 59.3%.
With `N[C@@H](Cc1ccc(N(CCCl)CCCl)cc1)C(=O)O` [Melphalan] (990 nM) the normalised viability (DU-4475 [1]) was 62.4%, the normalised viability (CAL-148 [2]) was 74.2% and the normalised viability (MDA-MB-453 [3]) was 95.8%. The normalised viability (CAL-51 [4]) was 68.8%, the normalised viability (HDQ-P1 [5]) was 94% and the normalised viability (CAL-85-1 [6]) was 72.1%.
With `C[C@@H](CN1CC(=O)NC(=O)C1)N1CC(=O)NC(=O)C1` [Dexrazoxane] (10000 nM) the normalised viability (DU-4475 [1]) was 102%, the normalised viability (CAL-148 [2]) was 96.2% and the normalised viability (MDA-MB-453 [3]) was 100%. It also gave a normalised viability (CAL-51 [4]) of 92.9%, a normalised viability (HDQ-P1 [5]) of 85.2% and a normalised viability (CAL-85-1 [6]) of 93.7%.
With `Cc1c(C(=O)Nc2ccc(N3C[C@@H](C)O[C@@H](C)C3)nc2)cccc1-c1ccc(OC(F)(F)F)cc1` [NVP-LDE225] (10000 nM) the normalised viability (DU-4475 [1]) was 110%, the normalised viability (CAL-148 [2]) was 121% and the normalised viability (MDA-MB-453 [3]) was 82.8%. For the same molecule, the normalised viability (CAL-51 [4]) was 92.5%, the normalised viability (HDQ-P1 [5]) was 127% and the normalised viability (CAL-85-1 [6]) was 98.4%.
`NC(=O)c1cccc2cn(-c3ccc([C@@H]4CCCNC4)cc3)nc12` [MK-4827] (3000 nM) showed a normalised viability (DU-4475 [7]) of 58.6%, a normalised viability (CAL-148 [8]) of 73.5% and a normalised viability (MDA-MB-453 [9]) of 101%. The normalised viability (CAL-51 [10]) was 48.8%, the normalised viability (HDQ-P1 [11]) was 91.3% and the normalised viability (CAL-85-1 [12]) was 85.8%.
In the case of `CC/C(=C(\c1ccccc1)c1ccc(OCCN(C)C)cc1)c1ccccc1` [Tamoxifen] (3000 nM), the normalised viability (DU-4475 [7]) was 106%, the normalised viability (CAL-148 [8]) was 117% and the normalised viability (MDA-MB-453 [9]) was 89.7%. The normalised viability (CAL-51 [10]) was 99.1%, the normalised viability (HDQ-P1 [11]) was 100% and the normalised viability (CAL-85-1 [12]) was 102%.
In the case of `NC(=O)NO` [Hydroxyurea] (30000 nM), the normalised viability (DU-4475 [7]) was 104%, the normalised viability (CAL-148 [8]) was 103% and the normalised viability (MDA-MB-453 [9]) was 93.1%. It also gave a normalised viability (CAL-51 [10]) of 111%, a normalised viability (HDQ-P1 [11]) of 104% and a normalised viability (CAL-85-1 [12]) of 89.1%.
In the case of `O=NN(CCCl)C(=O)NC1CCCCC1` [Lomustine] (3000 nM), the normalised viability (DU-4475 [7]) was 89.1%, the normalised viability (CAL-148 [8]) was 103% and the normalised viability (MDA-MB-453 [9]) was 112%. It also gave a normalised viability (CAL-51 [10]) of 113%, a normalised viability (HDQ-P1 [11]) of 99.7% and a normalised viability (CAL-85-1 [12]) of 93.8%.
With `C[C@@H]1C[C@H]2[C@@H]3CCC4=CC(=O)C=C[C@]4(C)[C@@]3(F)[C@@H](O)C[C@]2(C)[C@@]1(O)C(=O)CO` [Dexamethasone] (3000 nM) the normalised viability (DU-4475 [7]) was 100%, the normalised viability (CAL-148 [8]) was 93.3% and the normalised viability (MDA-MB-453 [9]) was 78.2%. It also gave a normalised viability (CAL-51 [10]) of 106%, a normalised viability (HDQ-P1 [11]) of 112% and a normalised viability (CAL-85-1 [12]) of 115%.
Work on `Cc1c(C(=O)Nc2ccc(N3C[C@@H](C)O[C@@H](C)C3)nc2)cccc1-c1ccc(OC(F)(F)F)cc1` [NVP-LDE225] (3000 nM) yielded a normalised viability (DU-4475 [7]) of 121%, a normalised viability (CAL-148 [8]) of 107% and a normalised viability (MDA-MB-453 [9]) of 75.2%. It also gave a normalised viability (CAL-51 [10]) of 101%, a normalised viability (HDQ-P1 [11]) of 84.1% and a normalised viability (CAL-85-1 [12]) of 109%.
`CO[C@H](C(=O)[C@@H](O)[C@@H](C)O)[C@@H]1Cc2cc3cc(O[C@H]4C[C@@H](O[C@@H]5C[C@@H](O)[C@H](O)[C@@H](C)O5)[C@H](O)[C@@H](C)O4)c(C)c(O)c3c(O)c2C(=O)[C@H]1O[C@H]1C[C@@H](O[C@@H]2C[C@@H](O)[C@@H](O[C@@H]3C[C@](C)(O)[C@H](O)[C@@H](C)O3)[C@@H](C)O2)[C@H](O)[C@@H](C)O1` [Plicamycin] (3000 nM) was tested, and the normalised viability (DU-4475 [7]) was 2.08% and 0.69%, the normalised viability (CAL-148 [8]) was 5.24% and 3.76% and the normalised viability (MDA-MB-453 [9]) was 7% and 7.5%. The normalised viability (CAL-51 [10]) was 3.09% and 4.26%, the normalised viability (HDQ-P1 [11]) was 23.8% and 15.9% and the normalised viability (CAL-85-1 [12]) was 5.82% and 5.38%.
